In patent US10898504B2, “Substituted nucleoside analogues for use as PRMT5 inhibitors” (Janssen Pharmaceutica NV, priority 2016, dated 2021):
Where “and” joins values, the source holds several entries; their conditions need not be identical. Identical values can stand only once.

What was measured:
PRMT5-MEP50 enzyme = molecular target: T1, PRMT5-MEP50 enzyme (Homo sapiens, UniProt O14744); assay: In vitro assay (Assay 1): PRMT5-MEP50 high throughput mass spectrometer assay, inhibition of SAH formation; format: biochemical; settings: individual measurements shown; for IC50: read-out: pIC50 Assay 1 (converted)
T1 construct: One virus expresses full length human PRMT5 with Flag-tag at N-terminus
T1 sequence (O14744 whole entry): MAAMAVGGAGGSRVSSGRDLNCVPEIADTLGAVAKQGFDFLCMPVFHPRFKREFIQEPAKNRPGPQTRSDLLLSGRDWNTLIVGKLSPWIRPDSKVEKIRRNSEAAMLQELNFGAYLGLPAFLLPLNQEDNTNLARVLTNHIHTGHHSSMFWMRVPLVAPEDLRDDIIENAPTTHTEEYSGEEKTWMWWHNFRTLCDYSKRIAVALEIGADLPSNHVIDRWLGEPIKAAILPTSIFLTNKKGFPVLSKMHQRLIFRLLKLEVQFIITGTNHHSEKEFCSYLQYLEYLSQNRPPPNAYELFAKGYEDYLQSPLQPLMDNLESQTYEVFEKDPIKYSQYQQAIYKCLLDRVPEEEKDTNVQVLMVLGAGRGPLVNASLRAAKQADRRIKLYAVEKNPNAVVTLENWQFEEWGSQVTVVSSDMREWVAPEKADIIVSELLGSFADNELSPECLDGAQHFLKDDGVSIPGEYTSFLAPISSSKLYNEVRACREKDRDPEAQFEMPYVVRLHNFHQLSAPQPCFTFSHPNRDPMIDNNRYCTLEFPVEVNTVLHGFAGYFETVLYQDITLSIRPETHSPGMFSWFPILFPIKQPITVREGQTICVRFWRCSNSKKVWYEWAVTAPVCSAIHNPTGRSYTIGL
T1 sequence (Q9BQA1 whole entry partner): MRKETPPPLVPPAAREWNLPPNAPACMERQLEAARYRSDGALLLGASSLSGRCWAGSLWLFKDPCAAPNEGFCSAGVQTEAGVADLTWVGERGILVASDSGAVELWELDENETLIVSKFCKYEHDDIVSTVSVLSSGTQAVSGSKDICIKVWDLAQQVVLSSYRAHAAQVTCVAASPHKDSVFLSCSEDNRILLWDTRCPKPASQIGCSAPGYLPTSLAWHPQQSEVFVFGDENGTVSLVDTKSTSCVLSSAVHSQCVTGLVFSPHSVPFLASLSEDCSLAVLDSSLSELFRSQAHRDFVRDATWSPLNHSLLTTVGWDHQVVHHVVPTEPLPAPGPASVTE
Procedure, shortened: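 Flag-PRMT5/His-MEP50 full-length human complex (Sf9-expressed), 10 nM, with 1 μM SAM and 0.3 μM histone H2A in 20 mM Tris-HCl pH 8.5, 50 mM NaCl, 5 mM MgCl2, 1 mM DTT; 60 min at 30 °C, quenched with 1% formic acid. SAH quantified by RapidFire MS; IC50 from 11-point 1:2 series fitted to four-parameter Hill equation.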

A549 cells = assay: PD assay (Assay 2): inhibition of nuclear symmetric Arginine dimethylation (SYM10 immunohistochemistry) in A549 cells; format: cell-based; settings: Homo sapiens, A549, PD assay in A549 cells, individual measurements shown, read-out: pIC50 Assay 2 (converted)
Procedure, shortened: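 A549 cells dosed with a nine-point series (0.2% DMSO) for 48 h at 37° C, then fixed and immunostained with SYM10 anti-symmetric-dimethylarginine antibody, plus Hoechst and CellMask counterstains for high-content imaging. Nuclear signal normalized between DMSO and 10 μM reference-compound controls to derive IC50/pIC50.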

MCL xenograft models = settings: multiple MCL xenograft models; Chan-Penebre et al., Nat Chem Biol 2015; cited from earlier work
PRMT5 = PRMT5 (Homo sapiens, UniProt O14744); settings: Chan-Penebre et al., Nat Chem Biol 2015; cited from earlier work
Sequence of PRMT5 (O14744 whole entry, species assumed): as the sequence (O14744 whole entry) above
Sequence of PRMT5 (Q9BQA1 whole entry partner, species assumed): as the sequence (Q9BQA1 whole entry partner) above

IC50 (PRMT5-MEP50 enzyme) | IC50 (A549 cells) [nM] | pIC50 Assay 1 (PRMT5-MEP50 enzyme) | Structure (SMILES) | anti-tumour activity (MCL xenograft models) | potency as PRMT5 inhibitor (PRMT5)
191 nM | 457 | – | Nc1ncnc2c1ccn2[C@@H]1O[C@H](CN2CCCC23CCN(Cc2nc4ccccc4[nH]2)CC3)[C@@H](O)[C@H]1O [Compound 177] | – | –
51.3 nM | 120 | – | CN1CCC2(CCCN2C[C@H]2O[C@@H](n3cc(F)c4c(N)ncnc43)[C@H](O)[C@@H]2O)CC1 [Compound 178] | – | –
31.6 nM | 95.5 | – | CN1CCC2(CCCN2C[C@H]2O[C@@H](n3cc(Br)c4c(N)ncnc43)[C@H](O)[C@@H]2O)CC1 [Compound 179] | – | –
10.2 nM | 269 | – | CN1CCC2(CCCN2C[C@H]2O[C@@H](n3cc(I)c4c(N)ncnc43)[C@H](O)[C@@H]2O)CC1 [Compound 180] | – | –
19.5 nM | 66.1 | – | CN1CCC2(CC1)CC(F)(F)CN2C[C@H]1O[C@@H](n2ccc3c(N)ncnc32)[C@H](O)[C@@H]1O [Compound 181] | – | –
15.5 nM | 501 | – | CCN1CCC2(CC1)CC(F)(F)CN2C[C@H]1O[C@@H](n2ccc3c(N)ncnc32)[C@H](O)[C@@H]1O [Compound 182] | – | –
22.4 nM | ~240 | – | Nc1ncnc2c1ccn2[C@@H]1O[C@H](CN2CC(F)(F)CC23CCN(CCc2ccc(F)cc2)CC3)[C@@H](O)[C@H]1O [Compound 183] | – | –
67.6 nM | ~1480 | – | CC(C)CCN1CCC2(CC1)CC(F)(F)CN2C[C@H]1O[C@@H](n2ccc3c(N)ncnc32)[C@H](O)[C@@H]1O [Compound 184] | – | –
25.1 nM | 589 | – | Nc1ncnc2c1ccn2[C@@H]1O[C@H](CN2CC(F)(F)CC23CCN(CCC2CC2)CC3)[C@@H](O)[C@H]1O [Compound 185] | – | –
13.5 nM | 617 | – | CN1CCC2(CCCN(C[C@H]3O[C@@H](n4ccc5c(N)ncnc54)[C@H](O)[C@@H]3O)C2)C1 (stereo partly shown) [Compound 186] | – | –
63.1 nM | 1700 | – | CN(C)CC[C@@H]1CCCN1C[C@H]1O[C@@H](n2ccc3c(N)ncnc32)[C@H](O)[C@@H]1O [Compound 187] | – | –
372 nM | 708 | – | CN1CCC2(CC1)CC(F)(F)CN2C[C@H]1O[C@@H](n2ccc3c(Cl)ncnc32)[C@H](O)[C@@H]1O [Compound 188] | – | –
– | > 10000 | 5.04 | CN1CCC2(CCCN2C[C@H]2O[C@@H](n3cnc4cncnc43)[C@H](O)[C@@H]2O)CC1 [Compound 191] | – | –
69.2 nM | 83.2 | – | N#CCN1CCC2(CCCN2C[C@H]2O[C@@H](n3ccc4c(N)ncnc43)[C@H](O)[C@@H]2O)CC1 [Compound 192] | – | –
186 nM | 468 | – | N#CCCN1CCC2(CCCN2C[C@H]2O[C@@H](n3ccc4c(N)ncnc43)[C@H](O)[C@@H]2O)CC1 [Compound 193] | – | –
427 nM | ~5620 | – | COCCN1CCC2(CCCN2C[C@H]2O[C@@H](n3ccc4c(N)ncnc43)[C@H](O)[C@@H]2O)CC1 [Compound 194] | – | –

IC50 (PRMT5-MEP50 enzyme) | IC50 (A549 cells) [nM] | pIC50 Assay 1 (PRMT5-MEP50 enzyme) | Structure (SMILES) | anti-tumour activity (MCL xenograft models) | potency as PRMT5 inhibitor (PRMT5)
537 nM | > 10000 | – | CNC(=O)CCN1CCC2(CCCN2C[C@H]2O[C@@H](n3ccc4c(N)ncnc43)[C@H](O)[C@@H]2O)CC1 [Compound 195] | – | –
1150 nM | 3240 | – | Nc1ncnc2c1ccn2[C@@H]1O[C@H](CN2CCCC23CCN(CC(F)F)CC3)[C@@H](O)[C@H]1O [Compound 196] | – | –
6460 nM | > 10000 | – | CNC(=O)CN1CCC2(CCCN2C[C@H]2O[C@@H](n3ccc4c(N)ncnc43)[C@H](O)[C@@H]2O)CC1 [Compound 197] | – | –
437 nM | ~1100 | – | Nc1ncnc2c1ccn2[C@@H]1O[C@H](CN2CCCC23CCN(C2COC2)CC3)[C@@H](O)[C@H]1O [Compound 198] | – | –
891 nM | 1860 | – | Nc1ncnc2c1ccn2[C@@H]1O[C@H](CN2CCCC23CCN(Cc2cccnn2)CC3)[C@@H](O)[C@H]1O [Compound 199] | – | –
4790 nM | > 10000 | – | Nc1ncnc2c1ccn2[C@@H]1O[C@H](CN2CCCC23CCN(Cc2nccs2)CC3)[C@@H](O)[C@H]1O [Compound 200] | – | –
457 nM | ~10200 | – | Nc1ncnc2c1ccn2[C@@H]1O[C@H](CN2CCCC23CCN(CC2OCCc4ccccc42)CC3)[C@@H](O)[C@H]1O (stereo partly shown) [Compound 201] | – | –
2000 nM | ~4680 | – | Nc1ncnc2c1ccn2[C@@H]1O[C@H](CN2CCCC23CCN(CC(F)(F)F)CC3)[C@@H](O)[C@H]1O [Compound 202] | – | –
209 nM | 661 | – | CN1CCC2(CCCN2C[C@H]2O[C@@H](n3ccc4c(NCc5ccc(F)cc5)ncnc43)[C@H](O)[C@@H]2O)CC1 [Compound 203] | – | –
372 nM | 1380 | – | CN1CCC2(CCCN2C[C@H]2O[C@@H](n3ccc4c(NCCc5ccc(F)cc5)ncnc43)[C@H](O)[C@@H]2O)CC1 [Compound 204] | – | –
1620 nM | 7080 | – | CCNc1ncnc2c1ccn2[C@@H]1O[C@H](CN2CCCC23CCN(C)CC3)[C@@H](O)[C@H]1O [Compound 205] | – | –
5.13 nM | 64.6 | – | CN1CCC2(CCC=C2C[C@H]2C[C@@H](n3ccc4c(N)ncnc43)[C@H](O)[C@@H]2O)CC1 [Compound 206] | – | –
5.01 nM | 52.5 | – | CN1CCC2(CCC/C2=C\[C@H]2C[C@@H](n3ccc4c(N)ncnc43)[C@H](O)[C@@H]2O)CC1 [Compound 207] | – | –
75.9 nM | 490 | – | CN1CCC2(CCCN2C[C@H]2O[C@@H](n3ccc4c(Cl)ncnc43)[C@H](O)[C@@H]2O)CC1 [Compound 208] | – | –
4680 nM and 4270 nM and 3470 nM | > 10000 | – | O[C@@H]1[C@H](O)[C@@H](CN2CCCC23CCNCC3)O[C@H]1n1cnc2c(NC3CC3)ncnc21 [Compound 270] | – | –
– | – | – | O=C(NC[C@H](O)CN1CCc2ccccc2C1)c1cc(NC2COC2)ncn1 [EPZ015666] | anti-tumour activity | sub-nanomolar potent
